# Target: T1, PARP1 (Homo sapiens, UniProt P09874)
# T1 construct: purchased BPS 80501
# Test: PARP1 enzyme assay (histone-coated plate, chemiluminescence)
# Assay type: biochemical
# Details: PARP1 0.02 nM, DNA 0.8 nM, NAD+ 3.5 µM; read-out: PARP-1 IC50
# Method: 1.1.1. Buffer preparation: PBST: 1× PBS, 0.05% Tween-20; blocking buffer: 1× PBS, 0.05% Tween-20, 5% BSA; reaction buffer: 50 mM Tris-HCl (pH 7.5), 0.005% Tween-20, 0.01% BSA.
# 1.1.2. Coating: A 50 ng/mL Histone coating solution was prepared with 1× PBS and then transferred to a 384-well reaction plate at 25 µL/well. The plate was coated at 4 °C overnight.
# 1.1.3. Washing: After the coating was completed, the coating solution was discarded, and the plate was washed with the PBST solution. The method was as follows: PBST was transferred to the 384-well reaction plate at 50 µL/well, and the plate was left to stand for 5 min. The washing solution was then discarded, and the plate was refilled. The washing step was repeated 3 times. Finally, the reaction plate was patted dry and left for the next step of blocking.
# 1.1.4. Blocking: The blocking buffer was transferred to the 384-well reaction plate at 50 µL/well, and the plate was left to stand for 1 h.
# Washing: After the blocking was completed, the blocking buffer was discarded, and the plate was washed 3 times with the PBST solution according to the method in step 2. Finally, the reaction plate was patted dry.
# 1.1.5. A 1000-fold solution of a compound was prepared and then transferred at 1 µL/well to a 96-well plate containing 199 µL of the reaction buffer. The mixture was well mixed, and then the well mixed compound solution was transferred to the 384-well reaction plate at 5 µL/well. 1.1.6. A 25/10-fold PARP1-DNA solution was prepared with the reaction buffer and then transferred to the 384-well reaction plate at 10 µL/well. For the negative control wells, 10 µL
# of the DNA solution was transferred. The final concentrations of PARP1 and DNA were 0.02 nM and 0.8 nM, respectively.
# 1.1.9. Washing: After the reaction was completed, the reaction solution was discarded, and the plate was washed 3 times with the PBST solution according to the method in step 2. Finally, the reaction plate was patted dry.
# 1.1.10. A primary antibody (anti-Poly/Mono-ADP Ribose Rabbit mAb) was diluted 2000-fold with the blocking buffer and then added at 20 µL/well.
# 1.1.11. Washing: The primary antibody was discarded, and the plate was washed 3 times with the PBST solution according to the method in step 2. Finally, the reaction plate was patted dry.
# 1.1.12. A secondary antibody (anti-rabbit IgG, HRP-linked Antibody) was diluted 2000-fold with the blocking buffer and then added at 20 µL/well.
# 1.1.13. Washing: The secondary antibody was discarded, and the plate was washed 3 times with the PBST solution according to the method in step 2. Finally, the reaction plate was patted dry.
# 1.1.14. Color development: Femto-ECL Substrate A and Femto-ECL Substrate B were mixed at a ratio of 1:1, and the mixture was transferred to the 384-well reaction plate at 25 µL/well. 1.1.15. Reading: The chemiluminescence values (RLU) were measured using Envision.
# T1 sequence (P09874 whole entry): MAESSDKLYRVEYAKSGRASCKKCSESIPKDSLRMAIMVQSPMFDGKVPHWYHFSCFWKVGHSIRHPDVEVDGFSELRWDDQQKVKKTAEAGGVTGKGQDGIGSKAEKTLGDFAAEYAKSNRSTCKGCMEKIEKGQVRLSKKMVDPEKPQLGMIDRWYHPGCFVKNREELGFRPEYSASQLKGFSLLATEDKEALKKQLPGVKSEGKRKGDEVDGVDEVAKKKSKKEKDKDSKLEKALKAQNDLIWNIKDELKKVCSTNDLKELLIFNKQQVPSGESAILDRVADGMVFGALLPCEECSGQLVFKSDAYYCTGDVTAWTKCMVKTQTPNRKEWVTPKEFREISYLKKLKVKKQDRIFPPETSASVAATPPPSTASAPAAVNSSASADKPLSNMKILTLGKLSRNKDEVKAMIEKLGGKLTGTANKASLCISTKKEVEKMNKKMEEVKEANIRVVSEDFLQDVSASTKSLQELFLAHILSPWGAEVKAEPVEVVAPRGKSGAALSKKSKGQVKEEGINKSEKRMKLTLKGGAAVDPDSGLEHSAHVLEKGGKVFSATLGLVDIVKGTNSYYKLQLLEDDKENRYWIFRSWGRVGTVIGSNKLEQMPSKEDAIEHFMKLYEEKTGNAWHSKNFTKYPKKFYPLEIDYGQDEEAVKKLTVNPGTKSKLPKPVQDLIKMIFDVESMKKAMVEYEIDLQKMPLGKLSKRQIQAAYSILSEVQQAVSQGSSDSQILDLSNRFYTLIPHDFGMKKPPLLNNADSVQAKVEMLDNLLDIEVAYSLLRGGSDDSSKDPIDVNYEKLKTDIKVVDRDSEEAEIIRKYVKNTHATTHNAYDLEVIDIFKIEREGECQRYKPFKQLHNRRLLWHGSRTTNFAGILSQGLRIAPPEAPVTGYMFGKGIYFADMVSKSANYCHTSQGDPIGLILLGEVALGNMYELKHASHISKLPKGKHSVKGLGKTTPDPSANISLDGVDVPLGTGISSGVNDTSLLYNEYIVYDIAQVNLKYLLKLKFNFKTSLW
row,IC50,Structure (SMILES)
1,≤ 0.05 µM,"[2H]C([2H])([2H])NC(=O)c1ccc(N2CCN(CC3CCc4cc(CC)c(=O)[nH]c4C3)CC2)cn1 (centres unmarked) [Compound 18, 5-(4-((3-Ethyl-2-oxo-1,2,5,6 ,7,8-hexahydroquinoline-7-yl)methyl)piperazin-1-yl)-N-(methyl-d3)picolinamide]"
2,≤ 0.05 µM,"CCc1cc2c([nH]c1=O)CC(CN1CCN(c3ccc(C(=O)NC)nc3)CC1)CC2 (centres unmarked) [Compound 15, 5-(4-((3-Ethyl-2-oxo-1,2,5,6 ,7,8-hexahydroquinoline-7-yl)methyl)piperazin-1-yl)-N-methylpicolinamide]"
3,≤ 0.05 µM,"CCc1cc2c([nH]c1=O)CC(CN1CCN(c3ccc(C(=O)NC4CC4)nc3F)CC1)CC2 (centres unmarked) [Compound 21, N-Cyclopropyl-5-(4-((3-ethyl-2-oxo-1,2,5,6,7,8-hexahydroquinoline-7-yl)methyl)piperazin-1-yl)-6-fluoropicoli namide]"
4,≤ 0.05 µM,"[2H]C([2H])([2H])NC(=O)c1ccc(N2CCN(CC3CCc4cc(CC)c(=O)[nH]c4C3)CC2)c(F)n1 (centres unmarked) [Compound 19, 5-(4-((3-Ethyl-2-oxo-1,2,5,6 ,7,8-hexahydroquinoline-7-yl)methyl)piperazin-1-yl)-6-fl uoro-N-(methyl-d3)picolinamide]"
5,≤ 0.05 µM,"CCc1cc2c([nH]c1=O)CC(CN1CCN(c3ccc(C(=O)NC)nc3C)CC1)CC2 (centres unmarked) [Compound 17, 5-(4-((3-Ethyl-2-oxo-1,2,5,6 ,7,8-hexahydroquinoline-7-yl)methyl)piperazin-1-yl)-N,6-dimethylpicolinamide]"
6,≤ 0.05 µM,"CCc1cc2c([nH]c1=O)CC(CN1CCN(c3ccc(C(=O)NCC(F)F)nc3F)CC1)CC2 (centres unmarked) [Compound 22, N-(2,2-Difluoroethyl)-5-(4-( (3-ethyl-2-oxo-1,2,5,6,7,8-hexahydroquinoline-7-yl)methyl)piperazin-1-yl)-6-fluoro picolinamide]"
7,≤ 0.05 µM,"CCc1cc2c([nH]c1=O)CC(CN1CCN(c3ccc(C(=O)NC4CC4)nc3)CC1)CC2 (centres unmarked) [Compound 20, N-Cyclopropyl-5-(4-((3-ethyl-2-oxo-1,2,5,6,7,8-hexahydroquinoline-7-yl)methyl)piperazin-1-yl)picolinamide]"
8,≤ 0.05 µM,"CCc1cc2c([nH]c1=O)CC(CN1CCN(c3ccc(C(=O)NC)nc3F)CC1)CC2 (centres unmarked) [Compound 16, 5-(4-((3-Ethyl-2-oxo-1,2,5,6 ,7,8-hexahydroquinoline-7-yl)methyl)piperazin-1-yl)-6-fl uoro-N-methylpicolinamide]"

# The remaining lines, values behind:
row,Structure (SMILES),IC50
1,"CCc1cc2c([nH]c1=O)CC(CN1CC=C(c3ccc(C(=O)NC4CC4)nc3)CC1)CC2 (centres unmarked) [Compound 28, N-Cyclopropyl-1'-((3-ethyl-2-oxo-1,2,5,6,7,8-hexahydroquinoline-7-yl)methyl)-1',2', 3',6'-tetrahydro-[3,4'-bipyridine]-6-carboxamide]",≤ 0.05 µM
2,"CCc1cc2c([nH]c1=O)CC(CN1CC=C(c3ccc(C(=O)NC)nc3)CC1)CC2 (centres unmarked) [Compound 23, 1'-((3-Ethyl-2-oxo-1,2,5,6,7,8-hexahydroquinoline-7-yl)methyl)-N-methyl-1',2',3',6'-tetrahydro-[3,4'-bipyridine]-6-carboxamide]",≤ 0.05 µM
3,"CCc1cc2c([nH]c1=O)CC(CN1CC=C(c3ccc(C(=O)NC)nc3F)CC1)CC2 (centres unmarked) [Compound 24, 1'-((3-Ethyl-2-oxo-1,2,5,6,7,8-hexahydroquinoline-7-yl)methyl)-2-fluoro-N-methyl-1',2',3',6'-tetrahydro-[3,4'-bipyridine]-6-carboxamide]",≤ 0.05 µM
4,"CCc1cc2c([nH]c1=O)CC(CN1CC=C(c3ccc(C(=O)NC4CC4)nc3F)CC1)CC2 (centres unmarked) [Compound 29, N-Cyclopropyl-1'-((3-ethyl-2-oxo-1,2,5,6,7,8-hexahydroquinoline-7-yl)methyl)-2-flu oro-1',2',3',6'-tetrahydro-[3,4 '-bipyridine]-6-carboxamide]",≤ 0.05 µM
5,"CCc1cc2c([nH]c1=O)CC(CN1CC=C(c3ccc(C(=O)NC4CC4)nc3)CC1)OC2 (centres unmarked) [Compound 8, N-Cyclopropyl-1'-((3-ethyl-2-oxo-1,5,7,8-tetrahydro-2H -pyrano[4,3-b]pyridin-7-yl)methyl)-1',2',3',6'-tetrahydro-[3,4'-bipyridine]-6-carboxamide]",≤ 0.05 µM
6,"CCc1cc2c([nH]c1=O)CC(CN1CCN(c3ccc(C(=O)NC)nc3F)C[C@@H]1C)OC2 (stereo partly drawn) [Example 72, 5-((3S)-4-((3-Ethyl-2-oxo-1,5,7,8-tetrahydro-2H-pyrano[4,3-b]pyridin-7-yl)methyl)-3-methylpiperazin-1-yl)-6-fluoro-N-methylpicolinamide]",0.05 to 0.5 µM
7,"CCc1cc2c([nH]c1=O)CC(CN1CC=C(c3ccc(C(=O)NC4CC4)nc3F)CC1)OC2 (centres unmarked) [Compound 7, N-Cyclopropyl-1'-((3-ethyl-2-oxo-1,5,7,8-tetrahydro-2H -pyrano[4,3-b]pyridin-7-yl)methyl)-2-fluoro-1',2',3',6'-tetrahydro-[3,4'-bipyridine]-6-carboxamide]",≤ 0.05 µM
8,"CCc1cc2c([nH]c1=O)CC(CN1CCN(c3ccc(C(=O)NC)nc3F)C[C@H]1C)OC2 (stereo partly drawn) [Example 75, 5-((3R)-4-((3-Ethyl-2-oxo-1,5,7,8-tetrahydro-2H-pyrano[4,3-b]pyridin-7-yl)methyl)-3-methylpiperazin-1-yl)-6-fluoro-N-methylpicolinamide]",0.05 to 0.5 µM
9,"[2H]C([2H])([2H])NC(=O)c1ccc(C2=CCN(CC3CCc4cc(CC)c(=O)[nH]c4C3)CC2)c(F)n1 (centres unmarked) [Compound 27, 1'-((3-Ethyl-2-oxo-1,2,5,6,7,8-hexahydroquinoline-7-yl)methyl)-2-fluoro-N-(methyl-d3)-1',2',3',6'-tetrahydro-[3,4' -bipyridine]-6-carboxamide]",≤ 0.05 µM
10,"CCc1cc2c([nH]c1=O)CC(CN1CC=C(c3ccc(C(=O)NC)nc3C)CC1)CC2 (centres unmarked) [Compound 25, 1'-((3-Ethyl-2-oxo-1,2,5,6,7,8-hexahydroquinoline-7-yl)methyl)-N,2-dimethyl-1',2',3 ',6'-tetrahydro-[3,4'-bipyridine]-6-carboxamide]",≤ 0.05 µM
11,"CNC(=O)c1ccc(N2CCN(C[C@@H]3Cc4[nH]c(=O)c(C)cc4CO3)CC2)c(Cl)n1 [Example 94, (S)-6-Chloro-N-methyl-5-(4-((3-methyl-2-oxo-1,5,7,8-tetrahydro-2H-pyrano[4,3-b]pyridin-7-yl)methyl)piperazin-1-yl)picolinamide]",≤ 0.05 µM
12,"[2H]C([2H])([2H])NC(=O)c1ccc(C2=CCN(CC3CCc4cc(CC)c(=O)[nH]c4C3)CC2)cn1 (centres unmarked) [Compound 26, 1'-((3-Ethyl-2-oxo-1,2,5,6,7,8-hexahydroquinoline-7-yl)methyl)-N-(methyl-d3)-1',2', 3',6'-tetrahydro-[3,4'-bipyridine]-6-carboxamide]",≤ 0.05 µM
13,CCc1nc2c([nH]c1=O)C[C@@H](CN1CCN3c4ccc(C(=O)NC)nc4COC[C@H]3C1)CC2 [Example 105],≤ 0.05 µM
14,"CCc1cc2c([nH]c1=O)CC(CN1CC=C(c3ccc(C(=O)NCC(F)F)nc3F)CC1)CC2 (centres unmarked) [Compound 30, N-(2,2-Difluoroethyl)-1'-((3-ethyl-2-oxo-1,2,5,6,7,8-hexahydroquinoline-7-yl)methyl)-2-fluoro-1',2',3',6'-tetrahy dro-[3,4'-bipyridine]-6-carb oxamide]",≤ 0.05 µM

# Test system: BRCA wild-type DLD-1 cells
# Test: Anti-proliferative activity against cells (CCK8): DLD-1
# Assay type: cell-based
# Details: Homo sapiens, 72 h + 96 h culture
# Method: BRCA wild-type DLD-1 cells were cultured in an RPMI-1640 medium containing 10% fetal bovine serum, 100 U/mL penicillin, and 100 µg/mL streptomycin, and incubated in an incubator with 5% saturated CO2 at 37 °C. When the cells grew to 80% confluence, they were collected, centrifuged at 300 g for 10 min, and then plated onto a 96-well plate at 1000 cells/well. After 24 h, different final concentrations (0 µM, 1 µM, and 10 µM) of PARPi were added, and the cells were cultured for another 72 h. The cells were subjected to medium exchange treatment (re-supplemented with PARPi at the same final concentrations) and then cultured for another 96 h. The 96-well plate was taken out.
row,Structure (SMILES),IC50
1,"[2H]C([2H])([2H])NC(=O)c1ccc(N2CCN(C([2H])([2H])[C@H]3CCc4nc(C)c(=O)[nH]c4C3)CC2)c(F)n1 [Example 84, (S)-6-Fluoro-N-(methyl-d3)-5-(4-((2-methyl-3-oxo-3,4,5,6,7,8-hexahydroquinoxalin-6-yl)methyl-d2)piperazin-1-yl)picolinamide]",> 1 µM
